IC50 data for 31 compounds are collected here from patent US8791267B2, “Biaryl PDE4 inhibitors for treating inflammatory, cardiovascular and CNS disorders” (Decode Genetics EHF, priority 2007, dated 2014).

Structures can show the parent of a compound that is named as a salt.

The target in experiment [1] is PDE4 (Homo sapiens, UniProt Q08499). The experiment can be described thus: In-vitro assay for PDE4 enzymes, real-time enzyme-coupled spectrophotometric assay (Table 9). It counts as biochemical. Conditions: human PDE4D; activity class, Table 9; read-out: hPDE4D.
The target in experiment [2] is PDE4B (Homo sapiens, UniProt Q07343). The experiment can be described thus: In-vitro assay for PDE4 enzymes, real-time enzyme-coupled spectrophotometric assay, PDE4B Activity (Table 10). Conditions: human PDE4B (hPDE4B), enzyme-coupled spectrophotometric assay; read-out: PDE4B Activity, hPDE4B. Type of experiment: biochemical.
Chain of PDE4B (Q07343 whole entry): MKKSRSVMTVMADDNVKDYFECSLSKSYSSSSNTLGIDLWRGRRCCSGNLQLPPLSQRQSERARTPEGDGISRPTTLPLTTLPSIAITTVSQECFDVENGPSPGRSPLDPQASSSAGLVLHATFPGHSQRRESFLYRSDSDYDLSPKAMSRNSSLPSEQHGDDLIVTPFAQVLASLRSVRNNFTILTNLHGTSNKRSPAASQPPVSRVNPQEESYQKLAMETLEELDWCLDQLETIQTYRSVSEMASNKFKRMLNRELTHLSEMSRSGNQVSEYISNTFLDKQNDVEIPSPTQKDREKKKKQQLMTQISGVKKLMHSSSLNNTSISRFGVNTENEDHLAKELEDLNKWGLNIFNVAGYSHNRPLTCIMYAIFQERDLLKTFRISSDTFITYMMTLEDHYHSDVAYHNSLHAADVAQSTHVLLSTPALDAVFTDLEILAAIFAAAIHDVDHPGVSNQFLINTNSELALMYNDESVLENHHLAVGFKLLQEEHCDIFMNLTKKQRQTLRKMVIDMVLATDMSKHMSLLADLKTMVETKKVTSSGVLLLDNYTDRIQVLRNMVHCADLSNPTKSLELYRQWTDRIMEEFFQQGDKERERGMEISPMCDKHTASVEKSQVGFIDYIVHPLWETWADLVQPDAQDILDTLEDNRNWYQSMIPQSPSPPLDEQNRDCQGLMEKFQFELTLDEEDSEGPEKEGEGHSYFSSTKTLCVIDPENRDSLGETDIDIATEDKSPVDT

Chain of PDE4 (Q08499 whole entry): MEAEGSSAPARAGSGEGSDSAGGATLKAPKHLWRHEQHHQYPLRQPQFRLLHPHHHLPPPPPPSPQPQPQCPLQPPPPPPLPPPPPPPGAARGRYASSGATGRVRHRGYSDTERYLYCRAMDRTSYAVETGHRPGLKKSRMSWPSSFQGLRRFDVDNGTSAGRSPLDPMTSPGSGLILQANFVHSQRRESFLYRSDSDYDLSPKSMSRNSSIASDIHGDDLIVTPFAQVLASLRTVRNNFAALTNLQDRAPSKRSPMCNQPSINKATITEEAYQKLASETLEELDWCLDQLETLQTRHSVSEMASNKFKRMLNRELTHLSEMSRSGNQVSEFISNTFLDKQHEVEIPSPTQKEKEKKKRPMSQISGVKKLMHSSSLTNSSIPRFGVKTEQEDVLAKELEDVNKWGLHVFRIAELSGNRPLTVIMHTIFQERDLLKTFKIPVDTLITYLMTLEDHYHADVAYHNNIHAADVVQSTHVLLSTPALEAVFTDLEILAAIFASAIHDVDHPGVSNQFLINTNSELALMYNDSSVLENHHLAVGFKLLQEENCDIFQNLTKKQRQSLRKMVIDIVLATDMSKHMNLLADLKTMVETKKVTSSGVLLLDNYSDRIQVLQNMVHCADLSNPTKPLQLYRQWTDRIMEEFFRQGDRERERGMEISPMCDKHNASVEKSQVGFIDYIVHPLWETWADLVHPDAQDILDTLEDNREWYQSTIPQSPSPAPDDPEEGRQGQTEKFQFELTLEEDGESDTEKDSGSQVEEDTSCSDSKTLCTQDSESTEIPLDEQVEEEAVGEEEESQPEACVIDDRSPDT

As for `COc1ccc(Cn2ccc3ccccc32)cc1-c1cccc([N+](=O)[O-])c1` [P-010, 1-(6-Methoxy-3′-nitro-biphenyl-3-ylmethyl)-1H-indole], the IC50 in experiment [1] and in experiment [2] was less than 5 µM in each case.
In the case of `COc1ccc(Cc2ccc(C#N)c(O)c2)c(F)c1-c1cccc(Cl)c1` [P-295], the IC50 is less than 5 µM in experiment [1] and 21 to 40 µM in experiment [2].
For `NC(=O)Nc1ccc(Cc2ccc(O)c(-c3cccc(Cl)c3)c2)cc1` [P-421, [4-(3′-Chloro-6-hydroxy-biphenyl-3-ylmethyl)-phenyl]-urea], the IC50 in experiment [1] and in experiment [2] was less than 5 µM each time.
Turning to `COc1ccc(Cc2ccno2)c(O)c1-c1cccc([N+](=O)[O-])c1` [P-130, 3-isoxazol-5-ylmethyl-6-methoxy-3′-nitro-biphenyl-2-ol], the IC50 in experiment [1] and in experiment [2] was less than 5 µM each time.
On to `COc1ccc(Cc2ccc(F)cc2)c(F)c1-c1cccc([N+](=O)[O-])c1` [P-050], for which the IC50 in experiment [1] and in experiment [2] was less than 5 µM each time.
Turning to `COc1ccc(Cc2ccc(C#N)cc2)c(O)c1-c1cccc([N+](=O)[O-])c1` [P-138, 4-(2-Hydroxy-6-methoxy-3′-nitro-biphenyl-3-ylmethyl)-benzonitrile], the IC50 in experiment [1] and in experiment [2] was less than 5 µM each time.
Consider `COc1ccc(Cc2cnc(N)nc2)c(F)c1-c1cccc(C(C)=O)c1` [P-281, 1-[3′-(2-Amino-pyrimidin-5-ylmethyl)-2′-fluoro-6′-methoxy-biphenyl-3-yl]-ethanone hydrochloride], for which the IC50 in experiment [1] and in experiment [2] was less than 5 µM each time.
With `COc1ccc(Cn2cncn2)cc1-c1cccc(OC(F)(F)F)c1` [P-084, 1-(6-Methoxy-3′-trifluoromethoxy-biphenyl-3-ylmethyl)-1H-[1,2,4]triazole], the IC50 in experiment [1] was less than 5 µM; in experiment [2] it was 5 to 20 µM.
With `COc1ccc(Cc2cnc(NC(N)=O)nc2)c(F)c1-c1cccc(Cl)c1` [P-291], the IC50 in experiment [1] and in experiment [2] was less than 5 µM each time.
As for `COc1ccc(Cc2ccc(NC(=O)CNC(=O)OC(C)(C)C)cc2)cc1-c1cccc([N+](=O)[O-])c1` [P-143], the IC50 in experiment [1] and in experiment [2] was less than 5 µM each time.
`COc1ccc(Cc2cnc(NC(N)=O)nc2)c(F)c1-c1cccc(C(C)=O)c1` [P-362, [5-(3′-Acetyl-2-fluoro-6-methoxy-biphenyl-3-ylmethyl)-pyrimidin-2-yl]-urea]: the IC50 in experiment [1] and in experiment [2] was less than 5 µM each time.
For the compound `COc1ccc(Cc2c(C)noc2C)c(O)c1-c1cccc([N+](=O)[O-])c1` [P-174], the IC50 in experiment [1] and in experiment [2] was less than 5 µM each time.
Regarding `COc1ccc(COc2ccc(NC(C)=O)cc2)c(F)c1-c1cccc(Cl)c1` [P-594], the IC50 in experiment [1] and in experiment [2] was less than 5 µM in each case.
In the case of `COc1ccc(CN2C(=O)CC[C@H]2CN)cc1-c1cccc([N+](=O)[O-])c1` [P-155, (S)-5-Aminomethyl-1-(6-methoxy-3′-nitro-biphenyl-3-ylmethyl)-pyrrolidin-2-one], the IC50 was in the range of 20 to 40 µM in experiment [1] and 5 to 20 µM in experiment [2].
As for `COc1ccc(Cc2ccc(S(N)(=O)=O)cc2)cc1-c1cccc(Cl)c1` [P-266, 4-(3′-Chloro-6-methoxy-biphenyl-3-ylmethyl)-benzenesulfonamide], the IC50 in experiment [1] and in experiment [2] was less than 5 µM each time.
As for `NC(=O)Nc1ccc(Cc2ccc(OC3CSC3)c(-c3cccc(Cl)c3)c2)cc1` [P-553, {4-[3′-Chloro-6-(thietan-3-yloxy)-biphenyl-3-ylmethyl]-phenyl}-urea], the IC50 in experiment [1] and in experiment [2] was less than 5 µM in each case.
`CCNC(=O)Nc1ccc(Cc2ccc(OC)c(-c3cccc(Cl)c3)c2F)cc1` [P-250]: the IC50 in experiment [1] and in experiment [2] was less than 5 µM each time.
Consider `COc1ccc(Cc2ccc(NC(N)=O)cc2)c(F)c1-c1cccc(C#N)c1` [P-413], for which the IC50 in experiment [1] and in experiment [2] was less than 5 µM each time.
As for `COc1ccc(CC2CCCS2)c(F)c1-c1cccc([N+](=O)[O-])c1` (centres unmarked) [P-128, 2-(2-fluoro-6-methoxy-3′-nitro-biphenyl-3-ylmethyl)-tetrahydro-thiophene], the IC50 in experiment [1] and in experiment [2] was less than 5 µM in each case.
For `COc1ccc(Cn2ccccc2=O)cc1-c1cccc(C(C)=O)c1` [P-179, 1-(3′-Acetyl-6-methoxy-biphenyl-3-ylmethyl)-1H-pyridin-2-one], the IC50 in experiment [1] and in experiment [2] was 5 to 20 µM each time.
On to `COc1ccc(CN2CCCC2=O)cc1-c1ccccc1` [P-162, 1-(6-Methoxy-biphenyl-3-ylmethyl)-pyrrolidin-2-one], for which the IC50 in experiment [1] and in experiment [2] was 5 to 20 µM throughout.
`COc1ccc(Sc2ccc(N)cc2)cc1-c1cccc(Cl)c1` [P-447, 4-(3′-Chloro-6-methoxy-biphenyl-3-ylsulfanyl)-phenylaammonium chloride]: the IC50 in experiment [1] and in experiment [2] was less than 5 µM each time.
Take `COc1ccc(Cc2ccc(N(C)C)nc2)c(F)c1-c1cccc(C(C)=O)c1` [P-332, 1-[3′-(6-Dimethylamino-pyridin-3-ylmethyl)-2′-fluoro-6′-methoxy-biphenyl-3-yl]-ethanone]: the IC50 in experiment [1] and in experiment [2] was less than 5 µM throughout.
On to `CNC(=O)NCc1ccc(Cc2ccc(OC(F)F)c(-c3cccc(Cl)c3)c2)cn1` [P-598, 1-[5-(3′-Chloro-6-difluoromethoxy-biphenyl-3-ylmethyl)-pyridin-2-ylmethyl]-3-methyl-urea hydrochloride], for which the IC50 in experiment [1] and in experiment [2] was less than 5 µM throughout.
In the case of `COc1ccc(Cc2ccnc(N3CCNCC3)c2)c(F)c1-c1cccc(Cl)c1` [P-515, 1-[4-(3′-Chloro-2-fluoro-6-methoxy-biphenyl-3-ylmethyl)-pyridin-2-yl]-piperazine], the IC50 in experiment [1] and in experiment [2] was less than 5 µM throughout.
For `Nc1ccc(Cc2ccc(OC(F)F)c(-c3cccc(Br)c3)c2F)cc1` [P-317], the IC50 in experiment [1] and in experiment [2] was less than 5 µM each time.
Take `O=C1CCCN1Cc1ccc(O)c(-c2cccc([N+](=O)[O-])c2)c1` [P-503, 1-(6-Hydroxy-3′-nitro-biphenyl-3-ylmethyl)-pyrrolidin-2-one]: the IC50 in experiment [1] and in experiment [2] was 5 to 20 µM throughout.
For the compound `COc1ccc(Cc2ccc(O)cc2)c(F)c1-c1cccc(Cl)c1` [P-216], the IC50 in experiment [1] and in experiment [2] was less than 5 µM throughout.
With `COc1ccc(Cc2ccc(CN3CCN(C)C3=O)nc2)c(F)c1-c1cccc(Cl)c1` [P-375, 1-[5-(3′-Chloro-2-fluoro-6-methoxy-biphenyl-3-ylmethyl)-pyridin-2-ylmethyl]-3-methyl-imidazolidin-2-one], the IC50 in experiment [1] and in experiment [2] was less than 5 µM each time.
Turning to `CCNC(=O)Nc1ncc(Cc2ccc(OC)c(-c3cccc(C#N)c3)c2F)cn1` [P-399, 1-[5-(3′-Cyano-2-fluoro-6-methoxy-biphenyl-3-ylmethyl)-pyrimidin-2-yl]-3-ethyl-urea], the IC50 in experiment [1] and in experiment [2] was less than 5 µM each time.
Consider `COc1ccc(Cn2ccnc2-c2cccnc2)c(F)c1-c1cccc(Cl)c1` [P-549, 3-[1-(3′-Chloro-2-fluoro-6-methoxy-biphenyl-3-ylmethyl)-1H-imidazol-2-yl]-pyridine hydrochloride salt], for which the IC50 is less than 5 µM in experiment [1] and 5 to 20 µM in experiment [2].
